Results on four compounds are retold here after the NIST ThermoML archive (doi:10.1016/j.fluid.2018.01.026).

The conditions of this data set: 101.33 kPa, Liquid, Vibrating tube method.

Structures are written as SMILES. ± gives the expanded uncertainty stated by the source.

By mass density is commonly meant mass per unit of volume. On to `CC(=O)CO` [acetol], for which the mass density by setting is: (293.15 K) 1080.13 ± 6.3 kg/m3; (298.15 K) 1074.92 ± 6.3 kg/m3; (303.15 K) 1069.67 ± 6.2 kg/m3; (308.15 K) 1064.31 ± 6.1 kg/m3; (313.15 K) 1058.71 ± 6.1 kg/m3; (318.15 K) 1053.13 ± 6 kg/m3. For the same compound, the mass density (323.15 K) turned out to be 1047.55 ± 5.9 kg/m3, the mass density (328.15 K) was 1042.01 ± 5.9 kg/m3 and the mass density (333.15 K) was 1036.62 ± 5.8 kg/m3.

Regarding `CCCCOC(C)=O` [butyl ethanoate], the mass density (293.15 K) is 880.61 ± 1 kg/m3; the mass density (298.15 K) was determined as 875.45 ± 1 kg/m3; the mass density (303.15 K) was 870.27 ± 1 kg/m3; the mass density (308.15 K) was 865.08 ± 1 kg/m3; the mass density (313.15 K) turned out to be 859.86 ± 1 kg/m3.

Regarding `CCOC(C)=O` [ethyl acetate], the mass density reads like this: (293.15 K) 900.48 ± 1 kg/m3; (298.15 K) 894.36 ± 1 kg/m3; (303.15 K) 888.19 ± 1 kg/m3; (308.15 K) 881.98 ± 1 kg/m3; (313.15 K) 875.73 ± 1 kg/m3.

Turning to `CCCOC(C)=O` [propyl ethanoate], the mass density reads like this: (293.15 K) 887.8 ± 1 kg/m3; (298.15 K) 882.19 ± 1 kg/m3; (303.15 K) 876.56 ± 1 kg/m3; (308.15 K) 870.9 ± 1 kg/m3; (313.15 K) 865.21 ± 1 kg/m3.
